The nature of data set [1]: Solubility in various personal care solvents. On the procedure:
A 36 wt % mixture of the referenced sample and listed solvents were prepared in a glass vial. The sealed glass vials containing the mixtures were then placed in a 60° C. water bath and periodically shaken and observed.

Data set [2] relates to Melanoderm tissue model MEL 300 A. The data set can be described thus: Skin whitening effect: melanin concentration in MelanoDerm tissue model. Format: cell-based, human. How it is done: This example illustrates cell viability properties and efficacy of skin lightening formulations according to the present invention. In particular, two formulations according to the present invention (containing AUTS as prepared according to Example 4), water (a negative control), 1% kojic acid (Sigma, Wis.) in water (positive control), and ascorbyl tetraisopalmitate in D5 (decamethylcyclopentasiloxane) were assayed and compared for cell viability and skin lightening efficacy (see Table 1) MELANODERM™ cell viability was tested by MTT assay after exposure to test and reference preparations. The assays were carried out using Melanoderm tissue model MEL 300 A cell line (MELANODERM tissue model available from MatTek, Ashland, Mass.), This melanoderm model consists of normal, human-derived epidermal keratinocytes and melanocytes that have been co-cultured to form a multilayer, highly differentiated model of human epidermis. […] (Cell viability with both materials in D5 at 10 and 25 μL dose was >90%). Skin whitening effect was evaluated by measuring melanin concentration (μg/ml) after six applications of each preparation.

Where [3] appears, read: 10 μl dose, six applications, in D5 (AUTS 3.2 wt %, VC-IP 6.4%).
Where [4] appears, read: 25 μl dose, six applications, in D5 (AUTS 3.2 wt %, VC-IP 6.4%).
Where [5] appears, read: 36 wt % mixture, 60° C. water bath, ** = nearly clear to hazy solution, gels when cooled to room temperature.

Where two headings read alike, the source gives them in different places. Marks after values point to notes of the source that are not given here.

Turning to “Bis-Ascorbyl Undecyl Polydimethylsiloxane [Comparative sample #2]”, in data set [1], the “Solubility in A = C12-15 Alkyl Benzoate (FINSOLV TN)” value (“Solubility … (FINSOLV TN)” for short) was “Yes”, the “Solubility in B = Cyclopentasiloxane (Dow/Corning 245 Fluid)” value (“Solubility … (Dow/Corning 245 Fluid)” below) was “No”, the “Solubility in C = Squalane (Uniqema PRIPURE 3759)” value (“Solubility in C = Squalane” below) was “No” and the “Solubility in D = Tricaprylin (TRIVENT OC-G)” value is recorded as “Yes”. Moreover, the “Solubility in Water” value in data set [1] is “No”.
With `CCCCCCCCC(CCCCCC)C(=O)OC[C@H](OC(=O)C(CCCCCC)CCCCCCCC)[C@H]1OC(=O)C(OC(=O)C(CCCCCC)CCCCCCCC)=C1OC(=O)C(CCCCCC)CCCCCCCC` (some centres unmarked) [VC-IP, ascorbyl tetraisopalmitate], the “Melanin concentration at Day 10, Average” value was 57.8* μg/ml in data set [2] (setting [3]) and 55.2** μg/ml in data set [2] (setting [4]).
Regarding `C[Si](C)(C)O[Si](C)(CCCCCCCCCCC(=O)OCC(O)C1OC(=O)C(O)=C1O)O[Si](C)(C)C` (centres unmarked) [AUTS, Ascorbyl Undecyl Trisiloxane], the “Melanin concentration at Day 10, Average” value in data set [2] (setting [3]) is recorded as 37.4* μg/ml. Also, the “Melanin concentration at Day 10, Average” value in data set [2] (setting [4]) is listed as 26.6** μg/ml. In data set [1] (36 wt % mixture, 60° C. water bath, * = translucent mixture that thickens to a viscous hazy liquid when cooled), the “Solubility in Water” value is “No”. In addition, in data set [1] (setting [5]), the “Solubility … (FINSOLV TN)” value is listed as “Yes**”, the “Solubility … (Dow/Corning 245 Fluid)” value is listed as “Yes**”, the “Solubility in C = Squalane” value is recorded as “Yes**” and the “Solubility in E = Caprylic/Capric Triglyceride” value is on record as “Yes**”.
Take `O=c1cc(CO)occ1O` [Kojic Acid, kojic acid]: the “Melanin concentration at Day 10, Average” value in data set [2] (25 μL dose, 1 wt % in water, six applications (positive control)) was found to be 41.9 µg/mL.
For “Bis-Ascorbyl Undecyl Tetramethyldisiloxane [Comparative sample #1]”, in data set [1], the “Solubility … (FINSOLV TN)” value is “No”, the “Solubility … (Dow/Corning 245 Fluid)” value is listed as “No”, the “Solubility in C = Squalane” value is listed as “No” and the “Solubility in D = Tricaprylin (TRIVENT OC-G)” value is “No”. For the same compound, the “Solubility in Water” value in data set [1] is “Yes*”.
